Laboratory results taken from US4496591A, “Insecticidal bis-carbamate sulfides” (priority 1981, dated 1985).

Assays:
Assay type in all cases: in vivo
[1] = system: southern armyworm (Spodoptera eridania, (Cram.)) larvae; assay: Southern armyworm leaf spray bait test; design: key: A: excellent control; B: partial control; C: no control at 500 ppm; details: 500 parts per million, three days
Description: (§1) Suspensions of the test compounds were prepared by dissolving one gram of compound in 50 milliliters of acetone in which had been dissolved 0.1 gram (10 percent of the weight of compound) of an alkylphenoxy polyethoxyethanol surfactant, as an emulsifying or dispersing agent. The resulting solution was mixed into 150 milliliters of water to give roughly 200 milliliters of a suspension containing the compound in finely divided form. The thus-prepared stock suspension contained 0.5 percent by weight of compound. The concentrations in parts per million by weight employed in the tests described hereinbelow were obtained by appropriate dilutions of the stock suspension with water. The test procedures were as follows:
Larvae of the southern armyworm (Spodoptera eridania, (Cram.)), reared on Tendergreen bean plants at a temperature of 80±5° F. and a reative humidity of 50±5 percent, constituted the test insects.
The test compounds were formulated by diluting the stock suspension with water to give a suspension containing 500 parts of test compound per million parts of final formulation. Potted Tendergreen bean plants of standard height and age were placed on a revolving turntable and sprayed with 100-110 milliliters of test compound formulation by use of a DeVilbiss spray gun set at 40 psig air pressure. This application, which lasted 25 seconds, was sufficient to wet the plants to run-off. As a control, 100-110 milliliters of a water-acetone-emulsifier solution containing no test compound were also sprayed on infested plants. When dry, the paired leaves were separated and each one was placed in a 9 centimeter Petri dish lines with moistened filter paper. Five randomly selected larvae were introduced into each dish and the dishes were closed. The closed dishes were labeled and held at 80°-85° F. for three days. Although the larvae could easily consume the whole leaf within twenty-four hours, no more food was added. Larvae which were unable to move the length of the body, even upon stimulation by prodding, were considered dead.
(§2) In these tests the pesticidal activity of the compounds at the indicated dosage rate against aphid, Southern Armyworm, Bean Beetle and housefly was rated as follows: […]

[2] = system: house flies (Musca domestica, L.); assay: Fly bait test; design: key: A: excellent control; B: partial control; C: no control at 500 ppm; details: 500 parts per million, sugar bait, twenty-four hours
Description: as §1
Four to six day old adult house flies (Musca domestica, L.), reared according to the specifications of the Chemical Specialties Manufacturing Association (Blue Book, McNair-Dorland Co., N.Y. 1954; pages 243-244, 261) under controlled conditions of 80±5° F. and 50±5 percent relative humidity, were the test insects. The flies were immobilized by anesthetizing them with carbon dioxide. Twenty-five immobilized individuals, males and females, were transferred to a cage consisting of a standard food strainer about five inches in diameter which was inverted over a wrapping-paper-covered surface. The test compounds were formulated by diluting the stock suspension with a 10 percent (by weight) sugar solution to give a suspension containing 500 parts of test compound per million parts of final formulation, by weight. Ten milliliters of the test formulation were added to a souffle cup containing a one-inch square of an absorbent cotton pad. This bait cup was introduced and centered on the blotting paper under the food strainer prior to admitting the anesthetized flies. The caged flies were allowed to feed on the bait for twenty-four hours, at a temperature of 80±5° F. and at a relative humidity of 50±5 percent.
as §2

[3] = system: egg of the Southern armyworm (Spodoptera eridania (Cram.)); assay: Southern armyworm ovicide test; design: key: A: excellent control; B: partial control; C: no control at 500 ppm; details: 500 parts per million, egg dip, four days
Description: as §1
The test organism was the egg of the Southern armyworm (Spodoptera eridania (Cram.)) as obtained from adults reared on Tendergreen bean plants at a temperature of 80±5° F. and a relative humidity of 50±5 percent. The eggs were laid on freezer paper (Marlon 717, Copco paper) and then cut into small sections containing one or two egg masses.
The test compounds were formulated by diluting the stock suspension with water to give a suspension containing 500 parts of test compound per million parts of final formulation. The egg masses were then dipped until they were thoroughly wet (5-10 seconds). They were then placed on a paper towel face up and were allowed to dry for 15-30 minutes. The dry eggs were placed in a 15×60 mm petri dish containing a cotton dental wick saturated with a 5 percent sodium chloride solution to maintain a high level of humidity. The closed dishes were labeled and held at a temperature of 80±5° F. for four days. Larvae that emerged from the egg, even if dead at the time of observation, were recorded as hatched.
as §2

[4] = system: root-knot nematode, Meloidogyne incognita var. acrita; assay: Nematocide test; design: key: 1: severe galling, equal to untreated plants; 2: moderate galling; 3: light galling; 4: very light galling; 5: no galling, perfect control; details: 3.33 m.g. per jar, cucumber, approximately 3 weeks
Description: The test organism used was the infective migratory larvae of the root-knot nematode, Meloidogyne incognita var. acrita, reared in the greenhouse on roots of cucumber plants. Infected plants were removed from the culture, and the roots were chopped very finely. A small amount of this inoculum was added to a pint jar containing approximately 180 cc. of soil. The jars were capped and incubated for one week at room temperature. During this period eggs of the nematode were hatched, and the larval forms migrated into the soil.
Ten ml. of the test formulation were added to each of the two jars for each dosage tested. Following the addition of chemical, the jars were capped, and the contents thoroughly mixed on a ball mill for […].
The test compounds were formulated by a standard procedure of solution in acetone addition of an emulsifier, and dilution with water. Primary screening tests were conducted at 3.33 m.g. of the test compound per jar.
The jars were left capped at room temperature for a period of 48 hours, and the contents then transferred to 3 inch pots. Subsequently, the pots were seeded to cucumber as an indicator crop and placed in the greenhouse where they were cared for in the normal fashion for approximately 3 weeks.
The cucumber plants were then taken from the pots, the soil removed from the roots, and the amount of galling visually rated.
In the test for activity against nematodes activity was rated as follows: […]

[5] = system: Mexican bean beetle (Epilachna varivestis, Muls.) larvae; assay: Mexican bean beetle leaf spray test; design: key: A: excellent control; B: partial control; C: no control at 500 ppm; details: 500 parts per million, fourth instar larvae, three days
Description: as §1
Fourth instar larvae of the Mexican bean beetle (Epilachna varivestis, Muls.), reared on Tendergreen bean plants at a temperature of 80±5° F. and 50±5° F. percent relative humdity, were the test insects.
The test compounds were formulated by diluting the stock suspension with water to give a suspension containing 500 parts of test compound per million parts of final formulation. Tendergreen bean plants of standard height and age were placed on a revolving turntable and sprayed with 100-110 milliliters of test compound formulation by use of a DeVilbiss spray gun set at 40 psig air pressure. This application, which lasted 25 seconds, was sufficient to wet the plants to run-off. As a control, 100-110 milliliters of a water-acetone-emulsifier solution containing no test compound was also sprayed on infested plants. When dry, the paired leaves were separated and each was placed in a 9 centimeter Petri dish lined with moistened filter paper. Five randomly selected larvae were introduced into each dish, and the dishes were closed. The closed dishes were labeled and held at a temperature of 80±5° F., for three days. Although the larvae could easily consume the leaf within 24 to 48 hours, no more food was added. Larvae which were unable to move the length of the body, even upon stimulation, were considered dead.
as §2

[6] = system: bean aphid (Aphis fabae Scop.); assay: Bean aphid foliage spray test; design: key: A: excellent control; B: partial control; C: no control at 500 ppm; details: 500 parts per million, 24 hour
Description: as §1
Adults and nymphal stages of the bean aphid (Aphis fabae Scop.) reared on potted dwarf nasturtium plants at 68°-70° F. and 50±5 percent relative humidity, constituted the test insects. For testing purposes, the number of aphids per pot were standardized to 100-150 by trimming plants containing excess aphids.
The test compounds were formulated by diluting the stock suspension with water to give a suspension containing 500 parts of test compound per million parts of final formulation.
The potted plants (one pot per compound tested) infested with 100-150 aphids, were placed on a revolving turntable and sprayed with 100-110 milliliters of test compound formulation by use of a DeVilbiss spray gun set at 40 psig. air pressure. This application, which lasted 25 seconds, was sufficient to wet the plants to run-off. As a control, 100-110 milliliters of a water-acetone-emulsifier solution containing no test compound was also sprayed on infested plants. After spraying, the pots were placed on their sides on a sheet of white standard mimeograph paper which had been previously ruled to facilitate counting. Temperature and humidity in the test room during the 24 hour holding period were 68°-70° F. and 50±5 percent, respectively. Aphids which fell onto the paper and were unable to remain standing after being uprighted were considered dead. Aphids remaining on the plants were observed closely for movement and those which were unable to move the length of the body upon stimulation by prodding were considered dead.
as §2

[7] = system: housefly adults (Musca domestica); assay: Comparative residual effect in soil; details: for Residual effect in soil (mortality), 0 weeks / Residual Activity (weeks): soil concentration four times LD50, housefly; for Residual effect in soil (mortality), 0 weeks: 24 hours; for Residual effect in soil (mortality), 1 week / Residual effect in soil (mortality), 4 weeks: soil concentration four times LD50, 25° C., 90% relative humidity; for Residual effect in soil (mortality), 1 week: 10080 min; for Residual effect in soil (mortality), 4 weeks: 40320 min
Description: Selected species of the new compounds were evaluated for their residual pesticidal activity in soil. […] The residual activity test were conducted using five to seven-day old housefly adults (Musca domestica).
The soil mixture used was one part agricultural soil and three parts sand. The agricultural soil was stored in plastic bags in a freezer, immediately after removal from the field. This was done to reduce microbial multiplication. Two weeks prior to use, the soil was thawed and held at room temperature to allow microbial population to equilibrate. The sand and soil were sifted to remove clumps and debris and were then blended by rolling on a roller mill in a closed metal container. The moisture level was adjusted to 15% by weight.
The concentration in the soil of the compound to be tested was four times the amount (in parts per million) necessary to achieve a mortality rate of 50% on contact with the soil (LD50). This is in accordance with the procedure developed by C. R. Harris of the Research Institute, Canadian Department of Agriculture, London, Ontario. Such procedure is disclosed in "Biological Activity of Chloropyrifos, Chlorpyrifor-Methyl, Phorate, and Counter® in Soil", The Canadian Entomologist, Vol. 109, pp. 1115-1120 (August 1977); and in "Laboratory Studies on the Persistance of Biological Activity of Some Insecticides in Soils", Journal of Economic Entomology, Vol. 62, No. 6, pp. 1437-1441 (December 1969).
An appropriate amount of compound was dissolved in an acetone--Triton solution and was diluted with water. Five mililiters of the formulated chemical was applied to four ounces of soil mixture and rolled in a 16-ounce glass jar to blend the compound evenly with the soil. Ten mililiters of granular cane sugar was then mixed thoroughly with the treated soil in an eight-ounce plastic container.
Twenty-five housefly adults, anesthetized with CO2, were then transferred to the soil and were covered with a perforated plastic lid. The test containers were held for 24 hours in a constant environment at a temperature of 80±5° F. and a relative humidity of […]. Mortality was based on the ability of the fly to move in a normal manner without spinning.
The above process was repeated on treated soil which had been incubated at 25° C. and 90% relative humidity for 1, 4, 6 and 8 weeks after initial exposure. This was necessary because the soil is incubated without sugar, sugar being added at the time of reinfestation. For this reason, appropriate volumes of soil had to be treated at the start of the soil test to last for the expected residual period.

COc1ccc(C(=O)c2ccccc2)c(OC(=O)N(C)SN(C)C(=O)ON=C(C)SC)c1 [Compound 10]
Southern Armyworm, pesticidal activity rating [1]: A | Housefly, pesticidal activity rating [2]: A | Southern Armyworm (egg), pesticidal activity rating [3]: A | Root-Knot Nematode, galling rating [4]: 5 | Mexican Bean Beetle, pesticidal activity rating [5]: A | Aphids, pesticidal activity rating [6]: A

CSC(C)=NOC(=O)N(C)SN(C)C(=O)Oc1cc(C)c(C)c(C)c1 [B]
Residual effect in soil (mortality), 0 weeks [7]: 100 | Residual effect in soil (mortality), 1 week [7]: 100 | Residual effect in soil (mortality), 4 weeks [7]: 0 | Residual Activity (weeks) [7]: less than 4 weeks

COc1cc(C=O)ccc1OC(=O)N(C)SN(C)C(=O)ON=C(C)SC [Compound 5]
Southern Armyworm, pesticidal activity rating [1]: A | Housefly, pesticidal activity rating [2]: A | Southern Armyworm (egg), pesticidal activity rating [3]: B | Root-Knot Nematode, galling rating [4]: 2 | Mexican Bean Beetle, pesticidal activity rating [5]: A | Aphids, pesticidal activity rating [6]: A

CSC(C)=NOC(=O)N(C)SN(C)C(=O)Oc1ccc(C(=O)c2ccccc2)cc1 [Compound 6]
Southern Armyworm, pesticidal activity rating [1]: A | Housefly, pesticidal activity rating [2]: A | Southern Armyworm (egg), pesticidal activity rating [3]: A | Root-Knot Nematode, galling rating [4]: 4 | Mexican Bean Beetle, pesticidal activity rating [5]: A | Aphids, pesticidal activity rating [6]: A

CSC(C)=NOC(=O)N(C)SN(C)C(=O)Oc1ccc(C(=O)O)cc1 [Compound 4, S-Methyl-N-[[[N'-[[N"-[(4-hydroxycarbonylphenoxy)carbonyl]-N"-methylaminosulfenyl]]-N'-methylcarbamoyloxy]]]thioacetimidate]
Southern Armyworm, pesticidal activity rating [1]: A | Housefly, pesticidal activity rating [2]: A | Mexican Bean Beetle, pesticidal activity rating [5]: A | Aphids, pesticidal activity rating [6]: B

CSC(C)=NOC(=O)N(C)SN(C)C(=O)Oc1ccc(C(C)=O)c(C)c1 [Compound 7]
Southern Armyworm, pesticidal activity rating [1]: A | Housefly, pesticidal activity rating [2]: A | Southern Armyworm (egg), pesticidal activity rating [3]: A | Root-Knot Nematode, galling rating [4]: 5 | Mexican Bean Beetle, pesticidal activity rating [5]: A | Aphids, pesticidal activity rating [6]: A

CNC(=O)ON=C(C)SC [Methomyl, methyl N[[(methylamino)carbonyl]oxy]ethanimidothioate]
Residual effect in soil (mortality), 0 weeks [7]: 100 | Residual effect in soil (mortality), 1 week [7]: 100 | Residual effect in soil (mortality), 4 weeks [7]: 15 | Residual Activity (weeks) [7]: less than 4 weeks

CSC(C)=NOC(=O)N(C)SN(C)C(=O)Oc1cccc(C)c1 [A]
Residual effect in soil (mortality), 0 weeks [7]: 100 | Residual effect in soil (mortality), 1 week [7]: 100 | Residual effect in soil (mortality), 4 weeks [7]: 23 | Residual Activity (weeks) [7]: less than 4 weeks
